According to paper PMC4450297, “Screening Active Compounds from Garcinia Species Native to China Reveals Novel Compounds Targeting the STAT/JAK Signaling Pathway” (BioMed Research International, 2015):

Tests used:
Experiment in all cases: Cell panel screen (CellTiter-Glo)
Type in all cases: cell-based, human
T98G = T98G (Brain), 20 micromolar, 72 hrs
How it was run: (§1)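 Tested once at 20 μM (final) over 72 h in cells cultured with 10% FBS. Luciferase/ATP luminescence read-out, background-corrected and normalised to vehicle controls.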

C3A = C3A (Liver), 20 micromolar, 72 hrs
How it was run: as §1

RL95 = RL95 (Uterus), 20 micromolar, 72 hrs
How it was run: as §1

NCI-H2405 = NCI-H2405 (Lung), 20 micromolar, 72 hrs
How it was run: as §1

C8166 = C8166 (Leukemia), 20 micromolar, 72 hrs
How it was run: as §1

NCI-H524 = NCI-H524 (Lung), 20 micromolar, 72 hrs
How it was run: as §1

NCI-H28 = NCI-H28 (Lung), 20 micromolar, 72 hrs
How it was run: as §1

MSTO-211-H = MSTO-211-H (Lung), 20 micromolar, 72 hrs
How it was run: as §1

T47D = T47D (Breast), 20 micromolar, 72 hrs
How it was run: as §1

HCC1599 = HCC1599 (Breast), 20 micromolar, 72 hrs
How it was run: as §1

ChaGo-K-1 = ChaGo-K-1 (Lung), 20 micromolar, 72 hrs
How it was run: as §1

A498 = A498 (listed under Lung), 20 micromolar, 72 hrs
How it was run: as §1

HCC1395 = HCC1395 (Breast), 20 micromolar, 72 hrs
How it was run: as §1

M059J = M059J (Brain), 20 micromolar, 72 hrs
How it was run: as §1

Bel-7402 = Bel-7402 (Liver), 20 micromolar, 72 hrs
How it was run: as §1

HEC-1-A = HEC-1-A (Uterus), 20 micromolar, 72 hrs
How it was run: as §1

HCC1937 = HCC1937 (Breast), 20 micromolar, 72 hrs
How it was run: as §1

NCI-H1623 = NCI-H1623 (Lung), 20 micromolar, 72 hrs
How it was run: as §1

BT-549 = BT-549 (Breast), 20 micromolar, 72 hrs
How it was run: as §1

Colo 205 = conditions: Colo 205, 20 micromolar, 72 hrs
How it was run: as §1

HPAF-II = HPAF-II (Pancreas), 20 micromolar, 72 hrs
How it was run: as §1

NCI-H1694 = NCI-H1694 (Lung), 20 micromolar, 72 hrs
How it was run: as §1

BT-474 = BT-474 (Breast), 20 micromolar, 72 hrs
How it was run: as §1

Panc 03.27 = Panc 03.27 (Pancreas), 20 micromolar, 72 hrs
How it was run: as §1

HCC1569 = HCC1569 (Breast), 20 micromolar, 72 hrs
How it was run: as §1

A704 = A704 (Kidney), 20 micromolar, 72 hrs
How it was run: as §1

CW-2 = CW-2 (Colon), 20 micromolar, 72 hrs
How it was run: as §1

CCF-STTG1 = CCF-STTG1 (Brain), 20 micromolar, 72 hrs
How it was run: as §1

ZR-75-30 = ZR-75-30 (Breast), 20 micromolar, 72 hrs
How it was run: as §1

HT-1197 = HT-1197 (Urinary bladder), 20 micromolar, 72 hrs
How it was run: as §1

HGC-27 = HGC-27 (Stomach), 20 micromolar, 72 hrs
How it was run: as §1

SW13 = SW13 (Adrenal gland), 20 micromolar, 72 hrs
How it was run: as §1

NCI-H1770 = NCI-H1770 (Lung), 20 micromolar, 72 hrs
How it was run: as §1

TCCSUP = TCCSUP (Urinary bladder), 20 micromolar, 72 hrs
How it was run: as §1

J82 = J82 (Urinary bladder), 20 micromolar, 72 hrs
How it was run: as §1

NCI-H2347 = NCI-H2347 (Lung), 20 micromolar, 72 hrs
How it was run: as §1

Compound	Percent Inhibition (T98G)	Percent Inhibition (C3A)	Percent Inhibition (RL95)	Percent Inhibition (NCI-H2405)	Percent Inhibition (C8166)	Percent Inhibition (NCI-H524)	Percent Inhibition (NCI-H28)	Percent Inhibition (MSTO-211-H)	Percent Inhibition (T47D)	Percent Inhibition (HCC1599)	Percent Inhibition (ChaGo-K-1)	Percent Inhibition (A498)	Percent Inhibition (HCC1395)	Percent Inhibition (M059J)	Percent Inhibition (Bel-7402)	Percent Inhibition (HEC-1-A)	Percent Inhibition (HCC1937)	Percent Inhibition (NCI-H1623)	Percent Inhibition (BT-549)	Percent Inhibition (Colo 205)	further results
O=c1c2ccc(O)c(O)c2oc2cccc(O)c12 [gl-23]	-2%	-1%	-20%	-14%	-1%	-30%	-10%	-25%	-4%	18%	-22%	3%	-11%	-5%	-16%	-6%	-1%	0%	-16%	-5%	Percent Inhibition (HPAF-II): -5%; Percent Inhibition (NCI-H1694): -9%; Percent Inhibition (BT-474): -16%; Percent Inhibition (Panc 03.27): -5%; Percent Inhibition (HCC1569): 0%; Percent Inhibition (A704): -11%; Percent Inhibition (CW-2): -3%; Percent Inhibition (CCF-STTG1): -1%; Percent Inhibition (ZR-75-30): 16%; Percent Inhibition (HT-1197): -11%; Percent Inhibition (HGC-27): -6%; Percent Inhibition (SW13): -10%; Percent Inhibition (NCI-H1770): -11%; Percent Inhibition (TCCSUP): -5%; Percent Inhibition (J82): -2%; Percent Inhibition (NCI-H2347): -8%
CC(C)=CCc1c2c(c(O)c3c1O[C@]14C(=C[C@@H]5C[C@H]1C(C)(C)O[C@@]4(C/C=C(\C)CO)C5=O)C3=O)C=CC(C)(C)O2 [GB18]	99%	99%	99%	99%	99%	100%	98%	99%	99%	99%	99%	93%	99%	99%	99%	99%	98%	99%	99%	99%	Percent Inhibition (HPAF-II): 99%; Percent Inhibition (NCI-H1694): 99%; Percent Inhibition (BT-474): 99%; Percent Inhibition (Panc 03.27): 99%; Percent Inhibition (HCC1569): 99%; Percent Inhibition (A704): 99%; Percent Inhibition (CW-2): 99%; Percent Inhibition (CCF-STTG1): 99%; Percent Inhibition (ZR-75-30): 99%; Percent Inhibition (HT-1197): 99%; Percent Inhibition (HGC-27): 99%; Percent Inhibition (SW13): 99%; Percent Inhibition (NCI-H1770): 99%; Percent Inhibition (TCCSUP): 99%; Percent Inhibition (J82): 99%; Percent Inhibition (NCI-H2347): 97%
CC1(C)C=Cc2cc3c(=O)c4c(O)cc(O)cc4oc3c(O)c2O1 [Go-11]	68%	19%	72%	3%	71%	83%	33%	66%	35%	49%	75%	37%	68%	78%	16%	38%	21%	-10%	46%	11%	Percent Inhibition (HPAF-II): 18%; Percent Inhibition (NCI-H1694): 73%; Percent Inhibition (BT-474): 31%; Percent Inhibition (Panc 03.27): 39%; Percent Inhibition (HCC1569): 41%; Percent Inhibition (A704): 24%; Percent Inhibition (CW-2): 61%; Percent Inhibition (CCF-STTG1): 44%; Percent Inhibition (ZR-75-30): 62%; Percent Inhibition (HT-1197): 39%; Percent Inhibition (HGC-27): 54%; Percent Inhibition (SW13): 24%; Percent Inhibition (NCI-H1770): 38%; Percent Inhibition (TCCSUP): 43%; Percent Inhibition (J82): 52%; Percent Inhibition (NCI-H2347): 10%
